Reference: publication PMC10290391, “Targeted degradation of ⍺-synuclein aggregates in Parkinson’s disease using the AUTOTAC technology” (Molecular Neurodegeneration, 2023)
Values joined by “and” are separate entries in the source; they are usually repeats but may differ in a detail not shown here. Equal entries are not always repeated. “Also recorded” adds a separate entry of the source.

Assays:
α-syn aggregates = test: Triton X-100 fractionation assay in SH-SY5Y α-syn A53T cells transduced with α-syn PFFs; assay type: cell-based, human
Protocol: Recombinant human α-syn (1–140) were obtained from NKMAX (SNA2001L). In vitro fibrillization was performed by diluting recombinant α-syn monomers to 1 mg/mL in sterile PBS, then incubating at 37 °C with constant agitation at 1,000 rpm for seven days. The fibrillization was verified by thioflavin T and sedimentation assays. The ability to form phospho-α-syn (S129) was also assessed by immunocytochemistry. In addition, to determine whether the generated PFFs act as seeds to accumulate endogenous α-syn, an adenovirus that expresses c-Myc-His-tagged human α-syn (gifted from lab of S.J.L) was used to infect cultured cells at an MOI of 10, followed by a fractionation assay. The administration of PFFs into 293A cells was done with protein delivery reagent (BioPORTER QuikEase Protein Delivery Kit, Sigma) following the provider’s instruction. The mouse α-syn PFFs were obtained from StressMarq (SPR-324). […]
(§1) For the separation of Triton X-100 soluble and insoluble fractions for monitoring α-syn, cells were washed with PBS and lysed in Triton X-100 buffer (50 mM Tris / 150 mM NaCl / 100 mM EDTA / 1% Triton X-100, pH 7.6) containing protease and phosphatase inhibitors for 30 min on ice. […] Immunoreactive bands were detected using ECL reagents (Thermo Fisher Scientific, 32,106). […] Densitometry of developed bands was analyzed with ImageJ (NIH, Bethesda).

insoluble α-syn species = test: Triton X-100 fractionation assay in primary rat cortex neurons; assay type: cell-based
Protocol: All procedures were conducted according to the IACUC and were approved by Seoul National University Institutional Animal Care and Use Committee. Rat cortex primary neuron were prepared from E16 Sprague–Dawley rat embryos (Orient Bio). Anesthetized […] were sacrificed by cervical dislocation, and embryos were removed. Cortices were dissected on the ice. Neurons were trypsinized, dissociated and plated onto poly-d-lysine coated cover slips at a density of 5 × 10^4 cells per cm^2 per 12-well plate or 6-well plate. Primary neurons were maintained in Neurobasal A medium containing 2% B27, 0.5 mM glutamax and antibiotics. Cells at 7 DIV were treated with h-α-syn PFF (1 µg/mL) for 14 d.
as §1, with “ice. The lysates were centrifuged at 12,000 rpm for 30 min, and the soluble supernatant was taken. The remaining pellets were washed with Triton X-100 buffer, followed by centrifugation at 12,000 rpm for 20 min.” for “ice.”

[1] = tested on: extracellular total α-syn; test: ELISA of extracellular α-syn in conditioned media of SH-SY5Y α-syn A53T cells; assay type: cell-based, human
Protocol: The conditioned medium was collected from differentiated SH-SY5Y cells infected with adenovirus overexpressing human α-syn. Following 24 h infection, the medium was replaced with fresh media containing DMSO or ATC161. The medium was collected after 24 h and centrifuged at 1,000 rpm to remove cell debris and dead cells. The supernatant was concentrated using Amicon 10 K MWCO filters (Millipore, Billerica, MA). The amounts of α-syn in conditioned medium were measured by enzyme-linked immunosorbent assay (ELISA) with an ELISA kit (Abcam, human α-syn ELISA kit, ab260052) following the provider’s instruction. The subsets of collected media were treated to fresh SH-SY5Y cells in order to determine the level of α-syn propagated to the fresh cells.

[2] = Pharmacokinetic study of ATC161 in male ICR mice; assay type: in vivo
Protocol: Supplementary file 13024_2023_630_MOESM1_ESM.eps: Additional file 1: Supplementary figure 1. Drug profiles of ATL and Autotac compounds. A, drug profiles of ATL compounds. Tissue concentrations and oral bioavailability were measured in ICR male mice upon 5 mg/kg oral administration of each ATL compound. B, structures of ATC161~164. C, Pharmacokinetic study of ATC161 conducted in male ICR mice otherwise indicated. M.W. represents molecular weight. The plasma exposure and the half-life were determined upon either POor IPATC161 administration. The drug tissue exposure was determined in Tau301L BiFC mice. IV refers to intravenous injection.

p62 = biological target: T1, p62 (Mus musculus, UniProt Q64337); test: Western blot in wild-type and p62-/- MEFs transduced with α-syn PFFs; assay type: cell-based; conditions: 1 μM, 12 h
T1 construct: endogenous in cells; host or cells: wild-type and p62-/- MEFs (Keiji Tanaka's laboratory)
Source text: Wild type human neuroblastoma cells (SH-SY5Y) and Hela were obtained from Korean Cell Line Bank. SH-SY5Y α-syn A53T cells, COS7 cells and 293A cell line were kindly gifted from S.J.L. lab. COS7 cells, 293A cells, wild-type and p62^−/− MEF cells, and wild type or A53T mutant α-syn SH-SY5Y cells were maintained in Dulbecco’s Modified Eagle’s Medium (DMEM) containing 10% fetal bovine serum (FBS). Wild-type and p62^−/− MEFs were obtained from Keiji Tanaka’s laboratory (Tokyo Metropolitan Research Institute, Japan). Cells were incubated at 37 °C in a 5% CO2 humidified chamber. The differentiation of SH-SY5Y α-syn A53T cells was done by 10 µM retinoic acid for 7 days prior to subsequent experiments.
as §1, with “ice. The lysates were centrifuged at 12,000 rpm for 30 min, and the soluble supernatant was taken. The remaining pellets were washed with Triton X-100 buffer, followed by centrifugation at 12,000 rpm for 20 min.” for “ice.”

SH-SY5Y α-syn A53T cells = test: MitoTracker Red analysis in SH-SY5Y α-syn A53T cells treated with rotenone; assay type: cell-based, human; conditions: 0.1 μM, 24 h; vs vehicle-treated cells
Protocol: Adenovirus overexpressing human wild-type SNCA was kindly gifted from the lab of S.J.L. COS7 cells were infected with the adenovirus overexpressing human α-syn at 0.8 × 10^8 pfu and incubated at 37 °C for 24 h. When the confluency reached 90%, the cells were split onto 6-well plates for further experiments. The α-syn aggregation was induced by the treatment of 100 nM rotenone (Sigma-Aldrich, R8875) for 56 h. For the MitoTracker analyses in SH-SY5Y α-syn A53T cells, rotenone was treated at 1 µM for 48 h with the co-treatment of 100 nM ATC161 for 24 h, then MitoTracker Red CMXRos (Invitrogen; M7512) was used to stain intact mitochondria following the manufacturer’s instruction.

T1 sequence (Q64337 whole entry): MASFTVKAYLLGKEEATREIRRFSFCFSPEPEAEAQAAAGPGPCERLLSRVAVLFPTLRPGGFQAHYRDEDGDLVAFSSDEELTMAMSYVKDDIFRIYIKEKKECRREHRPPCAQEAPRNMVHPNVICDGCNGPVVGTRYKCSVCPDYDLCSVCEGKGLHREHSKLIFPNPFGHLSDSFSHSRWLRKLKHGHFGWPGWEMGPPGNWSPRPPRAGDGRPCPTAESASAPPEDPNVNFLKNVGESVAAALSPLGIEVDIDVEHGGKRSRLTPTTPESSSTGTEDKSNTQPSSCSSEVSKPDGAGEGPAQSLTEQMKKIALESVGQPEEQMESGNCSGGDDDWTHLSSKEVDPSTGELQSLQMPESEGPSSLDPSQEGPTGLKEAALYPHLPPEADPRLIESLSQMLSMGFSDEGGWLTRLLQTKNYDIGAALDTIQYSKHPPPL

With `Fc1ccc(COc2cccc(CNCCOCCOCCNc3cccc(-c4cc(-c5ccc6c(c5)OCO6)n[nH]4)c3)c2)cc1` [ATC161, 3-(3-(benzo[d][1,3]dioxol-5-yl)-1H-pyrazol-5-yl)-N-(2-(2-(2-((3-((4-fluorobenzyl)oxy)benzyl)amino)ethoxy)ethoxy)ethyl)aniline] the DC50 (α-syn aggregates; Triton X-100 insoluble fraction, read-out: half degradation concentration (DC50) of α-syn aggregates) was ~100 nM and 100 nM, the “degradation of monomeric α-syn” value (α-syn aggregates; soluble fraction) was “No apparent degradation; also recorded: no such degradation was observed” and the “concentration of lysosomal degradation of aggregates” value (insoluble α-syn species; PD model cells (discussion)) was 10 nM. For the same compound, the “concentration from which insoluble α-syn species are targeted” value (insoluble α-syn species; primary rat cortex neurons, soluble monomeric form intact) was 10 nM, the “reduction of relative level of extracellular total α-syn” value [1] was 50% and the half-life ([2]; male, ICR, oral, mouse plasma, read-out: terminal elimination half-life (T1/2) (converted)) was 3.7 h. The systemic exposure ([2]; oral administration, mice) was 3299.3 ng·h/mL, the “lipidation of LC3 in the absence of p62” value (p62) was “failed to induce the lipidation of LC3 into LC3-II” and the “MitoTracker fluorescence (mitochondrial integrity)” value (SH-SY5Y α-syn A53T cells) was “increased level of MitoTracker signals”.
